Measurements from patent US12398111B2, “Triazine compounds and pharmaceutical use thereof” (Japan Tobacco Inc., priority 2014, dated 2025).
pIC50: −log10 of the molar value.

Tests used:
[1] = tested on: prostaglandins in guinea pig secondary aqueous humor; assay: Effect on prostaglandin composition in guinea pig aqueous humor (instillation of 0.003% ophthalmic solution, LC/MS/MS); assay type: in vivo, Hartley male guinea pig; conditions: 24 hr after instillation of 0.003% ophthalmic solution
Method: A test article was dissolved in saline containing 0.5% polysorbate80 (Fluka) and 0.003% ophthalmic solution (pH 7.0-8.0) was prepared. The test article was administered to Hartley male guinea pig by instillation of 20 μL thereof to one eye by using a micropipette. After instillation, the lacrimal part was lightly fixed by gently pressing the lower eyelid for about 15 seconds. The opposite eye was treated in the same manner. To the vehicle group was administered the medium (0.5% polysorbate-containing saline) by a method similar to that for the test article. After 23 hr from the instillation, Mydrin P (registered trade mark) 0.5% ophthalmic solution (Santen Pharmaceutical Co., Ltd., general name: tropicamide/phenylephrine hydrochloride) was dropwisely added by one drop to the both eyes of a guinea pig to cause mydriasis. The guinea pig was anesthetized with Escain (registered trade mark) inhalation anesthetics (Pfizer Inc., general name: isoflurane), the cornea of the both eyes was tapped with a 30G injection needle, and the leaked aqueous humor (primary aqueous humor) was collected. One hour later (24 hr after instillation), the guinea pig was anesthetized again with isoflurane, and the secondary aqueous humor was collected in the same manner. The concentration of prostaglandins in the secondary aqueous humor obtained from each group (4 guinea pigs, 8 eyes) was measured by the LC/MS/MS system (Ultra high performance liquid chromatography: Nexera (registered trademark) manufactured by Shimadzu Corporation, mass spectrometer: […]), and the concentration ratio of each prostaglandin concentration relative to the total of all prostaglandin concentrations was calculated.

[2] = target: T1, human mPGES-1 (Homo sapiens, UniProt O14684); assay: Evaluation of human mPGES-1 enzyme inhibitory activity (PGE2 measured by HTRF, microsome fraction of CHO-S cells expressing human mPGES-1); assay type: biochemical; conditions: IC50 value; microsome fraction of CHO-S cells expressing human mPGES-1, PGE2 by HTRF
T1 construct: made in house; host or cells: FreeStyle CHO-S cells (Chinese hamster ovary), transient transfection with pcDNA3.1(+)/human mPGES-1; microsome fraction used
T1 sequence (O14684 1-152): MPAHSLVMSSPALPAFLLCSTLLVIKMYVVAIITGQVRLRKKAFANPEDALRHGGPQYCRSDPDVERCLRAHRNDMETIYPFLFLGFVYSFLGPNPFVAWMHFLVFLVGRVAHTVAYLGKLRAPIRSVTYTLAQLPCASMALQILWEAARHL
How it was run: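 Enzyme source: microsomes from CHO-S cells transfected with human mPGES-1 and cultured 48 hr, diluted to 5 μg/mL protein in reduced GSH (12.5 mmol/L KPB solution). Test articles were in 0.1 mol/L potassium phosphate pH 7.4, final DMSO 2% (v/v). PGE2 formed was quantified by HTRF.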

| SMILES | 6-keto-PGF1α (%) [1] [%] | PGD2 (%) [1] [%] | PGE2 (%) [1] [%] | PGF2α (%) [1] [%] | TXB2 (%) [1] [%] | pIC50 [2] |
| --- | --- | --- | --- | --- | --- | --- |
| Cc1ccc(-c2nc(O)nc(-c3cc(CNC(=O)C(C)(C)C(F)(F)F)ccc3Cl)n2)cc1F [Example 1-81, N-{4-chloro-3-[4-(3-fluoro-4-methylphenyl)-6-hydroxy-1,3,5-triazin-2-yl]benzyl}-3,3,3-trifluoro-2,2-dimethylpropionamide] | 15.7 | 13.2 | 60 | 9.8 | 1.3 | 9.22 |
| CC(C)(C(=O)NCc1ccc(Cl)c(-c2nc(O)nc(-c3ccc(F)c(C4CC4)c3)n2)c1)C(F)(F)F [Example 1-135, N-{4-chloro-3-[4-(3-cyclopropyl-4-fluorophenyl)-6-hydroxy-1,3,5-triazin-2-yl]benzyl}-3,3,3-trifluoro-2,2-dimethylpropionamide] | 19.4 | 10.9 | 56.1 | 12.7 | 0.9 | 9.30 |
| CC(C)COc1ccc(-c2nc(O)nc(-c3cc(CNC(=O)C4(C(F)(F)F)CC4)ccc3Cl)n2)cc1 [Example 1-178, 1-trifluoromethylcyclopropanecarboxylic acid 4-chloro-3-[4-hydroxy-6-(4-isobutoxyphenyl)-1,3,5-triazin-2-yl]benzylamide] | 36.6 | 20.1 | 30 | 13 | 0.3 | 8.85 |
| CC(C)c1cc(-c2nc(O)nc(-c3cc(CNC(=O)C(C)(C)C(F)(F)F)ccc3Cl)n2)ccc1C(F)(F)F [Example 1-130, N-{4-chloro-3-[4-hydroxy-6-(3-isopropyl-4-trifluoromethylphenyl)-1,3,5-triazin-2-yl]benzyl}-3,3,3-trifluoro-2,2-dimethylpropionamide] | 11.2 | 6.2 | 73.6 | 8 | 1 | 8.05 |
| CCCOc1ccc(-c2nc(O)nc(-c3cc(CNC(=O)C(C)(C)C(F)(F)F)ccc3Cl)n2)cc1 [Example 1-122, N-{4-chloro-3-[4-hydroxy-6-(4-propoxyphenyl)-1,3,5-triazin-2-yl]benzyl}-3,3,3-trifluoro-2,2-dimethylpropionamide] | 27.7 | 23 | 37.3 | 11.7 | 0.2 | 8.89 |
| CC1(COc2ccc(-c3nc(O)nc(-c4cc(CNC(=O)C(C)(C)C(F)(F)F)ccc4Cl)n3)cc2)CC1 [Example 1-128, N-(4-chloro-3-{4-hydroxy-6-[4-(1-methylcyclopropylmethoxy)phenyl]-1,3,5-triazin-2-yl}benzyl)-3,3,3-trifluoro-2,2-dimethylpropionamide] | 29.7 | 19.3 | 36.2 | 13.9 | 0.8 | 8.89 |
| CC(C)Cc1ccc(-c2nc(O)nc(-c3cc(CNC(=O)C(C)(C)C)ccc3Cl)n2)cc1 [Example 1-51, N-{4-chloro-3-[4-(4-isobutylphenyl)-6-hydroxy-1,3,5-triazin-2-yl]benzyl}-2,2-dimethylpropionamide] | 21.7 | 13.2 | 50.7 | 14 | 0.4 | 9.00 |
| CCCOc1ccc(-c2nc(O)nc(-c3cc(CNC(=O)[C@@](C)(OC)C(F)(F)F)ccc3Cl)n2)cc1 [Example 1-137, (R)—N-{4-chloro-3-[4-hydroxy-6-(4-propoxyphenyl)-1,3,5-triazin-2-yl]benzyl}-3,3,3-trifluoro-2-methoxy-2-methylpropionamide] | 24.8 | 14.1 | 49.5 | 11.3 | 0.3 | 9.30 |
| Cc1cccc(COc2cccc(C(F)(F)F)c2-c2nc(O)nc(-c3ccc(C#Cc4ccccc4)cc3)n2)n1.Cl [Example 2-98, 4-[2-(6-methylpyridin-2-ylmethoxy)-6-trifluoromethylphenyl]-6-(4-phenylethynylphenyl)-1,3,5-triazin-2-ol hydrochloride] | 27.3 | 20.1 | 37.8 | 14.8 | 0 | 8.43 |
| Cc1ccc(-c2nc(O)nc(-c3cc(CNC(=O)C(C)(C)C(F)(F)F)ccc3Cl)n2)cc1Cl [Example 1-129, N-{4-chloro-3-[4-(3-chloro-4-methylphenyl)-6-hydroxy-1,3,5-triazin-2-yl]benzyl}-3,3,3-trifluoro-2,2-dimethylpropionamide] | 18.1 | 9.2 | 62.5 | 10.2 | 0 | 9.22 |
| C[C@@H](Oc1ccc(-c2nc(O)nc(-c3cc(CNC(=O)C(C)(C)C(F)(F)F)ccc3Cl)n2)cc1)C1CC1 [Example 1-185, N-(4-chloro-3-{4-[4-((R)-1-cyclopropylethoxy)phenyl]-6-hydroxy-1,3,5-triazin-2-yl}benzyl)-3,3,3-trifluoro-2,2-dimethylpropionamide] | 25.4 | 12.1 | 50 | 11 | 1.6 | 8.77 |
| CCCCOc1ccc(-c2nc(O)nc(-c3cc(CNC(=O)C(C)(C)C(F)(F)F)ccc3Cl)n2)cc1 [Example 1-131, N-{3-[4-(4-butoxyphenyl)-6-hydroxy-1,3,5-triazin-2-yl]-4-chlorobenzyl}-3,3,3-trifluoro-2,2-dimethylpropionamide] | 27.9 | 18.8 | 42.9 | 9.8 | 0.6 | 9.05 |
| CC(C)c1ccc(-c2nc(O)nc(-c3cc(CNC(=O)C(C)(C)C(F)(F)F)ccc3Cl)n2)cc1 [Example 1-98, N-{4-chloro-3-[4-hydroxy-6-(4-isopropylphenyl)-1,3,5-triazin-2-yl]benzyl}-3,3,3-trifluoro-2,2-dimethylpropionamide] | 31.2 | 16.3 | 38 | 14.2 | 0.3 | 9.05 |
